Test results as given in US20130281397A1, “TREATMENT OF DISEASES BY EPIGENETIC REGULATION” (RVX Therapeutics Inc., priority 2012, published 2013).
Counter-ions that a name gives are not always drawn.

target: T1, Brd4 bromodomain 1 (Homo sapiens, UniProt O60885); assay: Inhibition of binding of tetra-acetylated histone H4 and Brd4 bromodomain 1 by TR-FRET; settings: His-tagged bromodomain 200 nM, biotinylated tetra-acetylated histone H4 peptide 25-50 nM, 2 hours at room temperature
T1 construct: made in house; host or cells: E. coli BL21(DE3)
Protocol: Proteins were cloned and overexpressed with a N-terminal 6×His tag, then purified by nickel affinity followed by size exclusion chromatography. Briefly, E. coli BL21(DE3) cells were transformed with a recombinant expression vector encoding N-terminally […] tagged bromodomains from Brd2, Brd3, or Brd4. Cell cultures were incubated at 37° C. with shaking to the appropriate density and induced overnight with IPTG. The supernatant of lysed cells was loaded onto Ni-IDA column for purification. Eluted protein was pooled, concentrated and further purified by size exclusion chromatography. Fractions representing monomeric protein were pooled, concentrated, aliquoted, and frozen at −80° C. for use in subsequent experiments.
For inhibition assays, serially diluted test compound was added to these reactions in a 0.2% final concentration of DMSO. Final buffer concentrations were 30 mM HEPES pH 7.4, 30 mM NaCl, 0.3 mM CHAPS, 20 mM phosphate pH 7.0, 320 mM KF, 0.08% BSA). […] The binding inhibitory activity was shown by a decrease in 665 nm fluorescence relative to 620 nm. IC50 values were determined from a dose response curve.

Structure (SMILES) | FRET activity (<50 uM)
CCCNC(=O)OCCOc1c(C)cc(-c2nc3cc(OC)cc(OC)c3c(=O)[nH]2)cc1C [Example 99, 2-(4-(5,7-Dimethoxy-4-oxo-3,4-dihydroquinazolin-2-yl)-2,6-dimethyl-phenoxy)ethyl propylcarbamate] | Active
CNC(=O)OCCOc1c(C)cc(-c2nc3cc(OC)cc(OC)c3c(=O)[nH]2)cc1C [Example 100, 2-(4-(5,7-Dimethoxy-4-oxo-3,4-dihydroquinazolin-2-yl)-2,6-dimethyl-phenoxy)ethyl methylcarbamate] | Active
COc1cc(OC)c2c(=O)[nH]c(-c3cc(C)c(OCCNC(=O)c4ccc(C)cc4)c(C)c3)nc2c1 [Example 101, N-(2-(4-(5,7-Dimethoxy-4-oxo-3,4-dihydroquinazolin-2-yl)-2,6-dimethylphenoxy)ethyl)-4-methylbenzamide] | Active
COc1cc(OC)c2c(=O)[nH]c(-c3cc(C)c(OCCOC(=O)NC4CCCCC4)c(C)c3)nc2c1 [Example 102, 2-(4-(5,7-dimethoxy-4-oxo-3,4-dihydroquinazolin-2-yl)-2,6-dimethylphenoxy)ethyl cyclohexylcarbamate] | Active
COc1cc(OC)c2c(=O)[nH]c(-c3cc(C)c(OCCNS(=O)(=O)c4ccccc4)c(C)c3)nc2c1 [Example 103, N-(2-(4-(5,7-dimethoxy-4-oxo-3,4-dihydroquinazolin-2-yl)-2,6-dimethylphenoxy)ethyl)benzenesulfonamide] | Inactive
COc1cc(OC)c2c(=O)[nH]c(-c3cc(C)c(OCCNS(=O)(=O)c4ccc(C)cc4)c(C)c3)nc2c1 [Example 104, N-(2-(4-(5,7-dimethoxy-4-oxo-3,4-dihydroquinazolin-2-yl)-2,6-dimethylphenoxy)ethyl)-4-methylbenzenesulfonamide] | Inactive
COc1ccc(C(=O)NCCOc2c(C)cc(-c3nc4cc(OC)cc(OC)c4c(=O)[nH]3)cc2C)cc1 [Example 105, N-(2-(4-(5,7-dimethoxy-4-oxo-3,4-dihydroquinazolin-2-yl)-2,6-dimethylphenoxy)ethyl)-4-methoxybenzamide] | Inactive
COc1cc(OC)c2c(=O)[nH]c(-c3cc(C)c(OCCNC(C)=O)c(C)c3)nc2c1 [Example 106, N-(2-(4-(5,7-dimethoxy-4-oxo-3,4-dihydroquinazolin-2-yl)-2,6-dimethylphenoxy)ethyl)acetamide] | Active
COc1cc(OC)c2c(=O)[nH]c(-c3cc(C)c(OCCNC(=O)c4ccccc4)c(C)c3)nc2c1 [Example 107, N-(2-(4-(5,7-dimethoxy-4-oxo-3,4-dihydroquinazolin-2-yl)-2,6-dimethylphenoxy)ethyl)benzamide] | Active
COc1cc(OC)c2c(=O)[nH]c(-c3cc(C)c(OCCNC(=O)C(C)C)c(C)c3)nc2c1 [Example 108, N-(2-(4-(5,7-dimethoxy-4-oxo-3,4-dihydroquinazolin-2-yl)-2,6-dimethylphenoxy)ethyl)isobutyramide] | Active
CNC(=O)NCCOc1c(C)cc(-c2nc3cc(OC)cc(OC)c3c(=O)[nH]2)cc1C [Example 109, 1-(2-(4-(5,7-dimethoxy-4-oxo-3,4-dihydroquinazolin-2-yl)-2,6-dimethylphenoxy)ethyl)-3-methylurea] | Active
COc1ccc(NC(=O)NCCOc2c(C)cc(-c3nc4cc(OC)cc(OC)c4c(=O)[nH]3)cc2C)cc1 [Example 110, 1-(2-(4-(5,7-dimethoxy-4-oxo-3,4-dihydroquinazolin-2-yl)-2,6-dimethylphenoxy)ethyl)-3-(4-methoxyphenyl)urea] | Inactive
COc1cc(OC)c2c(=O)[nH]c(-c3cc(C)c(OCCNC(=O)Nc4ccccc4)c(C)c3)nc2c1 [Example 111, 1-(2-(4-(5,7-dimethoxy-4-oxo-3,4-dihydroquinazolin-2-yl)-2,6-dimethylphenoxy)ethyl)-3-phenylurea] | Active
COc1cc(OC)c2c(=O)[nH]c(-c3cc(C)c(OCCNC(=O)N(C)C)c(C)c3)nc2c1 [Example 112, 3-(2-(4-(5,7-dimethoxy-4-oxo-3,4-dihydroquinazolin-2-yl)-2,6-dimethylphenoxy)ethyl)-1,1-dimethylurea] | Active

tested on: not given; assay: not given; settings: not given

Structure (SMILES) | melting point
Cc1cc(-c2cc3ncccc3c(=O)[nH]2)cc(C)c1O (as salt: HCl) [Example 5, 7-(4-hydroxy-3,5-dimethylphenyl)-1,6-naphthyridin-5(6H)-one] | > 350 °C
COc1cc(OC)c2c(=O)[nH]c(-c3cc(C)c(O)c(C)c3)cc2n1 (as salt: HCl) [Example 13, 7-(4-hydroxy-3,5-dimethylphenyl)-2,4-dimethoxy-1,6-naphthyridin-5(6H)-one] | > 324 °C
COc1cc(OC)c2c(=O)[nH]c(-c3cc(C)c(OCCN(C)C)c(C)c3)cc2c1 (as salt: hydrochloride) [Example 7, 3-(4-(2-(dimethylamino)ethoxy)-3,5-dimethylphenyl)-6,8-dimethoxyisoquinolin-1(2H)-one] | 261 to 263 °C
Cc1cc(-c2cc3ccc(CN4CCOCC4)cc3c(=O)[nH]2)cc(C)c1O (as salt: hydrochloride) [Example 8, 3-(4-hydroxy-3,5-dimethylphenyl)-7-(morpholinomethyl)isoquinolin-1(2H)-one] | 281 to 283 °C
COc1cc(O)nc2cc(-c3cc(C)c(O)c(C)c3)[nH]c(=O)c12 (as salt: hydrochloride) [Example 9, 2-hydroxy-7-(4-hydroxy-3,5-dimethylphenyl)-4-methoxy-1,6-naphthyridin-5(6H)-one] | > 330 °C
COc1cc(OC)c2c(=O)[nH]c(-c3cc(C)c(OCCN4CCOCC4)c(C)c3)nc2c1 (as salt: hydrochloride) [Example 17, 2-(3,5-dimethyl-4-(2-morpholinoethoxy)phenyl)-5,7-dimethoxyquinazolin-4(3H)-one] | 185 to 187 °C
COc1cc(OC)c2c(=O)[nH]c(-c3cc(C)c(OCCN4CCN(C)CC4)c(C)c3)cc2c1 (as salt: hydrochloride) [Example 18, 3-(3,5-dimethyl-4-(2-(4-methylpiperazin-1-yl)ethoxy)phenyl)-6,8-dimethoxyisoquinolin-1(2H)-one] | 195 to 198 °C
COc1cc(OC)c2c(=O)[nH]c(-c3ccccn3)nc2c1 (as salt: hydrochloride) [Example 21, 5,7-dimethoxy-2-(pyridin-2-yl)quinazolin-4(3H)-one] | 215 to 217 °C
COc1cc(OC)c2c(=O)[nH]c(-c3cccnc3)nc2c1 (as salt: hydrochloride) [Example 22, 5,7-dimethoxy-2-(pyridin-3-yl)quinazolin-4(3H)-one] | 257 to 259 °C
COc1cc(OC)c2c(=O)[nH]c(-c3ccncc3)nc2c1 (as salt: hydrochloride) [Example 28, 5,7-dimethoxy-2-(pyridin-4-yl)quinazolin-4(3H)-one] | 294 to 295 °C
Cc1cc(-c2nc3ccccc3c(=O)[nH]2)cc(C)c1OCCN1CCOCC1 (as salt: hydrochloride) [Example 29, 2-(3,5-dimethyl-4-(2-morpholinoethoxy)phenyl)quinazolin-4(3H)-one] | 300 to 302 °C
COc1cc(OC)c2c(=O)[nH]c(-c3ccc(CN4CCN(C)CC4)cc3)nc2c1 (as salt: hydrochloride) [Example 54, 5,7-dimethoxy-2-(4-((4-methylpiperazin-1-yl)methyl)phenyl)quinazolin-4(3H)-one] | 275 to 277 °C
Cc1cc(-c2nc3ccc(CN4CCOCC4)cc3c(=O)[nH]2)cc(C)c1O (as salt: hydrochloride) [Example 57, 2-(4-hydroxy-3,5-dimethylphenyl)-6-(morpholinomethyl)quinazolin-4(3H)-one] | 284 to 286 °C
COc1cc(OC)c2c(=O)[nH]c(-c3ccc(CN4CCOCC4)cc3)nc2c1 (as salt: hydrochloride) [Example 61, 5,7-dimethoxy-2-(4-(morpholinomethyl)phenyl)quinazolin-4(3H)-one] | 206 to 208 °C (dec.)
CCN1CCN(Cc2ccc(-c3nc4cc(OC)cc(OC)c4c(=O)[nH]3)cc2)CC1 (as salt: hydrochloride) [Example 62, 2-(4-((4-ethylpiperazin-1-yl)methyl)phenyl)-5,7-dimethoxyquinazolin-4(3H)-one] | 278 to 280 °C (dec.)
COc1cc2cc(-c3cc(C)c(O)c(C)c3)n(C)c(=O)c2c(OC)c1C [Example 14 (left), 3-(4-hydroxy-3,5-dimethylphenyl)-6,8-dimethoxy-2,7-dimethylisoquinolin-1(2H)-one] | 246 to 248 °C
COc1cc2nc(-c3ccc(N(C)C)c4ccccc34)[nH]c(=O)c2cc1OC [Example 39] | 235.5 to 236.5 °C
COc1cc2nc(-c3ccc(N(CCO)CCO)cc3)[nH]c(=O)c2cc1OC [Example 42, 2-(4-(bis(2-hydroxyethyl)amino)phenyl)-6,7-dimethoxyquinazolin-4(3H)-one] | 268 to 270 °C
COc1cc(OC)c2c(=O)[nH]c(-c3ccc(OCCO)c(OC)c3)nc2c1 [Example 52, 2-(4-(2-hydroxyethoxy)-3-methoxyphenyl)-5,7-dimethoxyquinazolin-4(3H)-one] | 246 to 248 °C
